Where “and” joins values, the source holds several entries; their conditions need not be identical. Equal entries are not always repeated. Records with an inconclusive call do not appear.
Tested on: BDF1 mice, colon carcinoma 38 sc, T/C %
Test: NCI In Vivo Anticancer Drug Screen. Data for tumor model Colon Carcinoma 38 (subcutaneous) in B6D2F1 (BDF1) mice
Conditions: endpoint: median tumor weight (est.), higher = larger tumour
How it was run: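 T/C readout: treated group (T) measurement over vehicle control group (C) measurement. Endpoint is survival or tumor size in mice bearing a transplanted tumor.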

[1] = dose: 50.0 mg/kg/injection, schedule: Q07DX002 (ip), vehicle: Klucel (hydroxypropylcellulose) (HPC)
[2] = dose: 12.5 mg/kg/injection, schedule: Q07DX002 (ip), vehicle: saline
[3] = dose: 25.0 mg/kg/injection, schedule: Q07DX002 (ip), vehicle: saline
[4] = dose: 100.0 mg/kg/injection, schedule: Q07DX002 (ip), vehicle: saline
[5] = dose: 200.0 mg/kg/injection, schedule: Q07DX002 (ip), vehicle: saline
[6] = dose: 400.0 mg/kg/injection, schedule: Q07DX002 (ip), vehicle: saline
[7] = dose: 50.0 mg/kg/injection, schedule: Q07DX002 (ip), vehicle: saline
[8] = dose: 3.0 mg/kg/injection, schedule: Q07DX002 (ip), vehicle: saline with Tween-80

For `O=C(O)Cc1cccc2c(=O)cc(-c3ccccc3)oc12`, the T/C (dose: 47.3 mg/kg/injection, schedule: Q03HX004 (ip), vehicle: clinical formulation) was 124 % of control, the T/C [1] was 79 % of control and the T/C (dose: 50.0 mg/kg/injection, schedule: Q07DX002 (ip), vehicle: sodium bicarbonate) was 46 % of control. For the same compound, the T/C (dose: 63.0 mg/kg/injection, schedule: Q03HX004 (ip), vehicle: clinical formulation) was 89 % of control, the T/C (dose: 63.0 mg/kg/injection, schedule: Q07DX002 (ip), vehicle: sodium bicarbonate) was 70 % of control and the T/C (dose: 63.0 mg/kg/injection, schedule: Q07DX002 (iv), vehicle: sodium bicarbonate) was 120 % of control. The T/C (dose: 84.0 mg/kg/injection, schedule: Q03HX004 (ip), vehicle: clinical formulation) was 19 % of control, the T/C (dose: 84.0 mg/kg/injection, schedule: Q06HX002 (ip), vehicle: clinical formulation) was 80 % of control and the T/C (dose: 84.0 mg/kg/injection, schedule: Q07DX002 (ip), vehicle: saline) was 103 % of control. The T/C (dose: 84.0 mg/kg/injection, schedule: Q07DX002 (ip), vehicle: sodium bicarbonate) was 46 % of control, the T/C (dose: 84.0 mg/kg/injection, schedule: Q07DX002 (iv), vehicle: sodium bicarbonate) was 122 % of control and the T/C (dose: 100.0 mg/kg/injection, schedule: Q07DX002 (ip), vehicle: Klucel (hydroxypropylcellulose) (HPC)) was 4 % of control. For the same compound, the T/C (dose: 100.0 mg/kg/injection, schedule: Q07DX002 (ip), vehicle: sodium bicarbonate) was 73 % of control, the T/C (dose: 112.0 mg/kg/injection, schedule: Q01DX001 (ip), vehicle: clinical formulation) was 72 % of control and the T/C (dose: 112.0 mg/kg/injection, schedule: Q06HX002 (ip), vehicle: clinical formulation) was 29 % of control. For the same compound, the T/C (dose: 112.0 mg/kg/injection, schedule: Q07DX002 (ip), vehicle: clinical formulation) was 44 % of control, the T/C (dose: 112.0 mg/kg/injection, schedule: Q07DX002 (ip), vehicle: saline) was 13 % of control and the T/C (dose: 112.0 mg/kg/injection, schedule: Q07DX002 (ip), vehicle: sodium bicarbonate) was 90 % of control. The T/C (dose: 112.0 mg/kg/injection, schedule: Q07DX002 (iv), vehicle: sodium bicarbonate) was 100 % of control, the T/C (dose: 150.0 mg/kg/injection, schedule: Q01DX001 (ip), vehicle: clinical formulation) was 22 % of control and the T/C (dose: 150.0 mg/kg/injection, schedule: Q07DX002 (ip), vehicle: saline) was 2 % of control. The T/C (dose: 150.0 mg/kg/injection, schedule: Q07DX002 (ip), vehicle: sodium bicarbonate) was 67 % of control, the T/C (dose: 150.0 mg/kg/injection, schedule: Q07DX002 (iv), vehicle: sodium bicarbonate) was 15 % of control and the T/C (dose: 200.0 mg/kg/injection, schedule: Q07DX002 (ip), vehicle: sodium bicarbonate) was 42 % of control. For the same compound, the T/C (dose: 267.0 mg/kg/injection, schedule: Q07DX002 (ip), vehicle: saline) was 1 % of control.

In the case of `CC(=O)OCC12CCC(C)=CC1OC1C(=O)CC2(C)C12CO2` (stereo not drawn), the T/C (dose: 0.25 mg/kg/injection, schedule: Q07DX002 (ip), vehicle: saline) is reported as 111 % of control, the T/C (dose: 10.0 mg/kg/injection, schedule: Q07DX002 (ip), vehicle: saline) is reported as 155 % of control and the T/C (dose: 20.0 mg/kg/injection, schedule: Q07DX002 (ip), vehicle: saline) is reported as 119 % of control.

In the case of `CN(C)CC(Cl)CCl` (stereo not drawn), the T/C [2] is reported as 118 % of control, the T/C [3] is reported as 105 % of control and the T/C [4] is reported as 115 % of control. The T/C [5] was 118 % of control and the T/C [6] was 88 % of control.

For `Brc1c(NC2=NCCN2)ccc2nccnc12`, the T/C (dose: 3.12 mg/kg/injection, schedule: Q07DX002 (ip), vehicle: saline) was 87 % of control, the T/C (dose: 6.25 mg/kg/injection, schedule: Q07DX002 (ip), vehicle: saline) was 98 % of control and the T/C [2] was 92 % of control. For the same compound, the T/C [3] was 82 % of control, the T/C [7] was 72 % of control and the T/C [4] was 75 % of control.

With `CCC1CC2CN(CCc3c([nH]c4ccccc34)C(C(=O)OC)(c3cc4c(cc3OC)N(C)C3C(O)(C(=O)OC)C(OC(C)=O)C5(CC)C=CCN6CCC43C65)C2)C1` (stereo not drawn) the T/C (dose: 0.25 mg/kg/injection, schedule: Q07DX002 (ip), vehicle: suspension in saline) was 162 % of control, the T/C (dose: 0.5 mg/kg/injection, schedule: Q07DX002 (ip), vehicle: suspension in saline) was 158 % of control and the T/C (dose: 1.0 mg/kg/injection, schedule: Q07DX002 (ip), vehicle: suspension in saline) was 167 % of control.

For `COC1CC(C)C(OC)c2cc(O)cc(c2O)NC(=O)/C(C)=C/C=C\C(C)C(OC(N)=O)/C(C)=C\C(C)C1OC` (stereo not drawn), the T/C (dose: 3.13 mg/kg/injection, schedule: Q07DX002 (ip), vehicle: saline + alcohol) was 114 % of control, the T/C (dose: 12.5 mg/kg/injection, schedule: Q07DX002 (ip), vehicle: saline + alcohol) was 69 % of control and the T/C (dose: 25.0 mg/kg/injection, schedule: Q07DX002 (ip), vehicle: saline + alcohol) was 94 % of control.

`O=C(NP(=O)(N1CC1)N1CC1)c1cc(I)ccc1I` was tested, and the T/C (dose: 8.0 mg/kg/injection, schedule: Q07DX002 (ip), vehicle: Klucel (hydroxypropylcellulose) (HPC)) was 105 % of control, the T/C (dose: 16.0 mg/kg/injection, schedule: Q07DX002 (ip), vehicle: Klucel (hydroxypropylcellulose) (HPC)) was 47 % of control and the T/C (dose: 32.0 mg/kg/injection, schedule: Q07DX002 (ip), vehicle: Klucel (hydroxypropylcellulose) (HPC)) was 92 % of control. For the same compound, the T/C (dose: 64.0 mg/kg/injection, schedule: Q07DX002 (ip), vehicle: Klucel (hydroxypropylcellulose) (HPC)) was 55 % of control, the T/C (dose: 128.0 mg/kg/injection, schedule: Q07DX002 (ip), vehicle: Klucel (hydroxypropylcellulose) (HPC)) was 22 % of control and the T/C (dose: 256.0 mg/kg/injection, schedule: Q07DX002 (ip), vehicle: Klucel (hydroxypropylcellulose) (HPC)) was 31 % of control.

In the case of `COc1ccc(C[C@H](N)C(=O)NC2C(CO)OC(n3cnc4c(N(C)C)ncnc43)C2O)cc1` (stereo partly drawn), the T/C [2] is reported as 81 % of control, the T/C (dose: 24.0 mg/kg/injection, schedule: Q07DX002 (ip), vehicle: saline) is reported as 79 % of control and 91 % of control and the T/C [3] is reported as 86 % of control. The T/C (dose: 48.0 mg/kg/injection, schedule: Q07DX002 (ip), vehicle: saline) was 80 % of control and 82 % of control, the T/C [7] was 92 % of control and 106 % of control and the T/C (dose: 96.0 mg/kg/injection, schedule: Q07DX002 (ip), vehicle: saline) was 91 % of control and 108 % of control. The T/C [4] was 89 % of control and 94 % of control, the T/C (dose: 192.0 mg/kg/injection, schedule: Q07DX002 (ip), vehicle: saline) was 72 % of control and 93 % of control and the T/C [5] was 55 % of control and 64 % of control. The T/C (dose: 384.0 mg/kg/injection, schedule: Q07DX002 (ip), vehicle: saline) was 64 % of control and 84 % of control and the T/C [6] was 21 % of control.

In the case of `CCc1ccccc1N1CCN(C(=O)c2cc(OC)c(OC)c(OC)c2)CC1`, the T/C (dose: 12.5 mg/kg/injection, schedule: Q07DX003 (ip), vehicle: Klucel (hydroxypropylcellulose) (HPC)) is reported as 92 % of control, the T/C (dose: 25.0 mg/kg/injection, schedule: Q07DX003 (ip), vehicle: Klucel (hydroxypropylcellulose) (HPC)) is reported as 96 % of control and the T/C (dose: 50.0 mg/kg/injection, schedule: Q07DX003 (ip), vehicle: Klucel (hydroxypropylcellulose) (HPC)) is reported as 47 % of control. The T/C (dose: 100.0 mg/kg/injection, schedule: Q07DX003 (ip), vehicle: Klucel (hydroxypropylcellulose) (HPC)) was 64 % of control, the T/C (dose: 200.0 mg/kg/injection, schedule: Q07DX003 (ip), vehicle: Klucel (hydroxypropylcellulose) (HPC)) was 54 % of control and the T/C (dose: 400.0 mg/kg/injection, schedule: Q07DX003 (ip), vehicle: Klucel (hydroxypropylcellulose) (HPC)) was 13 % of control.

`CC1=CC2OC3C(OC(=O)c4ccccc4)C(OC(=O)c4ccccc4)C(C)(C2(COC(=O)c2ccccc2)CC1)C31CO1` (stereo not drawn) was tested, and the T/C [8] was 166 % of control, the T/C (dose: 6.0 mg/kg/injection, schedule: Q07DX003 (ip), vehicle: saline with Tween-80) was 152 % of control and the T/C (dose: 12.0 mg/kg/injection, schedule: Q07DX003 (ip), vehicle: saline with Tween-80) was 184 % of control.

With `CCOC(=O)Nc1cc2c(c(N)n1)N=C(CN(C)c1ccccc1)CN2` the T/C (dose: 25.0 mg/kg/injection, schedule: Q07DX002 (ip), vehicle: Klucel (hydroxypropylcellulose) (HPC)) was 88 % of control and the T/C [1] was 63 % of control and 68 % of control.

`CC(=O)OC1COC(NC(=O)N(CCCl)N=O)C(OC(C)=O)C1OC(C)=O` (stereo not drawn) was tested, and the T/C (dose: 0.75 mg/kg/injection, schedule: Q07DX002 (ip), vehicle: saline with Tween-80) was 92 % of control, the T/C (dose: 1.5 mg/kg/injection, schedule: Q07DX002 (ip), vehicle: saline with Tween-80) was 84 % of control and the T/C [8] was 66 % of control. The T/C (dose: 6.0 mg/kg/injection, schedule: Q07DX002 (ip), vehicle: saline with Tween-80) was 92 % of control and the T/C (dose: 12.0 mg/kg/injection, schedule: Q07DX002 (ip), vehicle: saline with Tween-80) was 44 % of control.

Reference: PubChem BioAssay AID212 (DTP/NCI, 2004)
